Results as given in ChEMBL document CHEMBL5131455 (Bioorg Med Chem Lett, 2022).
Values after ≈ are worked out from the molar mass of the structure shown.

How the values were obtained:
[1] = AUC in rat plasma at 30 mg/kg, po in presence of [14-C]asciminib relative to radioactivity of [14-C] AUC; type: ADME, organism-based; conditions: in vivo
[2] = Apparent permeability across apical to basolateral side in human Caco-2 cells; type: ADME, cell-based
[3] = Volume of distribution at steady state in C57BL/6 mouse at 1 mg/kg, iv; type: ADME, organism-based; conditions: in vivo, read-out: Vdss
[4] = Ratio of drug level in C57BL/6 mouse brain at 30 mg/kg, ip to IC50 for antiproliferative activity against mouse BaF3 cells expressing BCR-ABL by ATP-luminescence assay; type: organism-based; conditions: in vivo
[5] = Tmax in C57BL/6 mouse at 30 mg/kg, po; type: ADME, organism-based; conditions: in vivo
[6] = biological target: Voltage-gated inwardly rectifying potassium channel KCNH2 (Homo sapiens, UniProt Q12809); assay: Displacement of [3H]dofetilide from human ERG expressed in HEK293 cells measured after 45 mins by topcount scintillation counting method; type: toxicity, cell-based
Sequence of Voltage-gated inwardly rectifying potassium channel KCNH2 (Q12809 whole entry): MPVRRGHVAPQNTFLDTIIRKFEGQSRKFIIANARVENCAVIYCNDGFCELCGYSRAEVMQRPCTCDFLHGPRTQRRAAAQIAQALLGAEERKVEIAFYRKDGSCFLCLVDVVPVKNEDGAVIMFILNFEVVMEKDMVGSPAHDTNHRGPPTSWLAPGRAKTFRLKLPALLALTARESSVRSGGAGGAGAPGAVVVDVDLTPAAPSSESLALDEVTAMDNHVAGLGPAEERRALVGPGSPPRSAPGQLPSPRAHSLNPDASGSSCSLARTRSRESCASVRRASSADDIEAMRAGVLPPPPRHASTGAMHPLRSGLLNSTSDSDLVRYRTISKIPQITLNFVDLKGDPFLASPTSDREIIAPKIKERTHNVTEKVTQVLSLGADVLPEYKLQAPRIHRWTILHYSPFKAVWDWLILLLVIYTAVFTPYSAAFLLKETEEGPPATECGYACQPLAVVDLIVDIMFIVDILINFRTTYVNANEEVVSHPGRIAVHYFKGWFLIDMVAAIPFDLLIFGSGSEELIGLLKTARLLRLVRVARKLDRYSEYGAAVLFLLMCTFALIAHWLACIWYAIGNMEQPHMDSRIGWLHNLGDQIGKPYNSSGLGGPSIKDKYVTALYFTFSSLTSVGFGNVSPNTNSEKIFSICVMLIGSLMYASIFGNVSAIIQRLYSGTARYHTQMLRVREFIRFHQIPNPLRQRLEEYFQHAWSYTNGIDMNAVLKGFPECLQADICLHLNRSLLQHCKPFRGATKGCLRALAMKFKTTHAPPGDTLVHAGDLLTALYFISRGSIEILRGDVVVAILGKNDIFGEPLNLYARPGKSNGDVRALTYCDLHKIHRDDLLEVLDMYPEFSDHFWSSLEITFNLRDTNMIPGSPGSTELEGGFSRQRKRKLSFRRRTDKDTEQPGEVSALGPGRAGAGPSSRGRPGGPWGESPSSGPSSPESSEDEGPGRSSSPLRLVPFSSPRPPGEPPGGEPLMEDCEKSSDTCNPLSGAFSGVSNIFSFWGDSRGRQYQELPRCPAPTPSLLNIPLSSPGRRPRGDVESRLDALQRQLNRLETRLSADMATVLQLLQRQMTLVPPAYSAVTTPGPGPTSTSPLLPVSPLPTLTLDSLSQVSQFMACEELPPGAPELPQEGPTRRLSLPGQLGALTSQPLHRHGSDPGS

[7] = Dose normalized AUC (infinity) in C57BL/6 mouse blood at 30 mg/kg, po; type: ADME, organism-based; conditions: in vivo
BaF3 = assay: Antiproliferative activity against mouse BaF3 cells expressing BCR-ABL by ATP-luminescence assay; type: functional, cell-based
[8] = Dose normalized Cmax in C57BL/6 mouse at 30 mg/kg, po; type: ADME, organism-based; conditions: in vivo
MDR1 = assay: Efflux ratio of apparent permeability across basolateral to apical side over apical to basolateral side in MDCK-MDR1 cells; type: ADME, cell-based, Canis lupus familiaris; conditions: dog
[9] = Apparent permeability in MDCK cells; type: ADME, cell-based, Canis lupus familiaris; conditions: dog, MDCK-MDR1
[10] = biological target: Tyrosine-protein kinase ABL1 (Homo sapiens, UniProt P00519); assay: Inhibition of transphosphorylation of ABL1 SH1-3 domain (64 to 515 residues) (unknown origin) expressed in Escherichia coli using FITC-Ahx-EAIYAAPFAKKK-NH2) as substrate measured after 60 mins by caliper method
Sequence of Tyrosine-protein kinase ABL1 (P00519 whole entry, the tested form may be a part): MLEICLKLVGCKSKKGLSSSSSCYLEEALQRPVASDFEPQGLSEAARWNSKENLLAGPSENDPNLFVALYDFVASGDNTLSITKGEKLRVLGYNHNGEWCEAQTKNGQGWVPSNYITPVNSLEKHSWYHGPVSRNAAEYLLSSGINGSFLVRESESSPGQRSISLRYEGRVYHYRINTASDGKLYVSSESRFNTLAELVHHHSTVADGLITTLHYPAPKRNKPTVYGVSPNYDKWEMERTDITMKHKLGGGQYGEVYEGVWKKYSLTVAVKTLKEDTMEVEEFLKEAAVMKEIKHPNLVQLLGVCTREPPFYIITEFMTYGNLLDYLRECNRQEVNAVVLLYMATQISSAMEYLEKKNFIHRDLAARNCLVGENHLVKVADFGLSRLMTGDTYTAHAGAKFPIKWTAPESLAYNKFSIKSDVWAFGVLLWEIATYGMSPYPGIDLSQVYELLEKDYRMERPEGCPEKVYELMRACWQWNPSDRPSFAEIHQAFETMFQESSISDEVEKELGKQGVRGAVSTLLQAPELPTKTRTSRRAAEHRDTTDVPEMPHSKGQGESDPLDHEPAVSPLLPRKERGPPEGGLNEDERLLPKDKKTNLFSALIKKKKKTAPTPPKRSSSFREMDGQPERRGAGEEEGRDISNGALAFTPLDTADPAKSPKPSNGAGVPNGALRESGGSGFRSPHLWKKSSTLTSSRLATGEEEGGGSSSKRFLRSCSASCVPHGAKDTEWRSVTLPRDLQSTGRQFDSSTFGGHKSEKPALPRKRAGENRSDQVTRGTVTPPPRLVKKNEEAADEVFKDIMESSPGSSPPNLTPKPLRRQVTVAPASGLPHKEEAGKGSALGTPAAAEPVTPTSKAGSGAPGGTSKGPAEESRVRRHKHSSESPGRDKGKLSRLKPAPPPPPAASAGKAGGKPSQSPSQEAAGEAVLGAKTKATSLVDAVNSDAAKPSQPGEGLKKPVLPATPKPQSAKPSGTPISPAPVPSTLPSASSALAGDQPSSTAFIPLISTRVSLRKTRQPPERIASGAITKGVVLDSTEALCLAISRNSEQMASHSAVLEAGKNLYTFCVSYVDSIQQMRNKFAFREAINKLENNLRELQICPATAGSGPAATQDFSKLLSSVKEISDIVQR

[11] = Dose normalized AUC (infinity) in C57BL/6 mouse brain at 30 mg/kg, ip; type: ADME, organism-based; conditions: in vivo
[12] = Half life in C57BL/6 mouse at 1 mg/kg, iv; type: ADME, organism-based; conditions: in vivo
[13] = Ratio of drug level in C57BL/6 mouse blood to brain at 1 mg/kg, iv measured after 5 mins; type: ADME, organism-based; conditions: in vivo
[14] = Clearance in C57BL/6 mouse at 1 mg/kg, iv; type: ADME, organism-based; conditions: in vivo
[15] = Intrinsic clearance in mouse liver microsomes; type: ADME, Microsome; conditions: read-out: CLH
[16] = Antiproliferative activity against human Fu97 cells measured after 72 hrs by celltiter-glo luminescent cell viability assay; type: functional, cell-based
[17] = Dose normalized Cmax in C57BL/6 mouse at 30 mg/kg, ip; type: ADME, organism-based; conditions: in vivo
[18] = Apparent permeability across basolateral to apical side in human Caco-2 cells; type: ADME, cell-based
[19] = Ratio of drug level in C57BL/6 mouse blood to brain at 30 mg/kg, ip measured at 4 hrs; type: ADME, organism-based; conditions: in vivo
[20] = Ratio of drug level in C57BL/6 mouse blood to brain at 10 mg/kg, ip measured at 4 hrs; type: ADME, organism-based; conditions: in vivo
[21] = Tmax in C57BL/6 mouse at 30 mg/kg, ip; type: ADME, organism-based; conditions: in vivo
Mu-type opioid receptor [22] = biological target: T1, Mu-type opioid receptor (Homo sapiens, UniProt P35372); assay: Displacement of [3H]morphine binding to recombinant human full-length MOR expressed in CHO-K1 cells measured after 60 mins by scintillation counting analysis; type: cell-based
T1 sequence (P35372 whole entry): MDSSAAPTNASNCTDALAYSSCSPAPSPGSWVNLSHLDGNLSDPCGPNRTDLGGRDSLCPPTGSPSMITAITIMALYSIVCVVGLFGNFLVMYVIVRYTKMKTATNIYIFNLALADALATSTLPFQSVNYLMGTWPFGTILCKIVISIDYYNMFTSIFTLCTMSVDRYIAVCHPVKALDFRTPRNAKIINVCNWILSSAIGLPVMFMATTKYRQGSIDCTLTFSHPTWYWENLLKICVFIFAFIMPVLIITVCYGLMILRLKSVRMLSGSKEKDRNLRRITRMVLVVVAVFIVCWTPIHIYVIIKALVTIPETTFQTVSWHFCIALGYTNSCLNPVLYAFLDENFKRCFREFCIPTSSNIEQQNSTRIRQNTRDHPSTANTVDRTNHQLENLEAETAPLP

[23] = Intrinsic clearance in rat liver microsomes; type: ADME, Microsome; conditions: read-out: CLH
[24] = Solubility of the compound in chloride free pH 6.8 phosphate buffer incubated up to 72 hrs by shake flask method; type: physicochemical
[25] = Dose normalized AUC (infinity) in C57BL/6 mouse blood at 30 mg/kg, ip; type: ADME, organism-based; conditions: in vivo
[26] = Solubility of the compound in pH 1 0.1N HCl buffer incubated up to 72 hrs by shake flask method; type: physicochemical
[27] = Antiproliferative activity against human SNU-213 cells measured after 72 hrs by celltiter-glo luminescent cell viability assay; type: functional, cell-based
[28] = Efflux ratio of apparent permeability across basolateral to apical side over apical to basolateral side in human Caco2 cells; type: ADME, cell-based; conditions: Caco-2
Mu-type opioid receptor [29] = biological target: T1, Mu-type opioid receptor; assay: Displacement of [3H]morphine binding to recombinant human full-length MOR expressed in CHO-K1 cells at 30 uM measured after 60 mins by scintillation counting analysis relative to control; type: cell-based
[30] = Antiproliferative activity against human KBM-7 cells measured after 72 hrs by celltiter-glo luminescent cell viability assay; type: functional, cell-based
[31] = Unbound brain to plasma concentration ratio in C57BL/6 mouse brain at 30 mg/kg, ip; type: ADME, organism-based; conditions: brain and plasma, read-out: K(p,uu,brain)
[32] = Antiproliferative activity against human CMK-86 cells measured after 72 hrs by celltiter-glo luminescent cell viability assay; type: functional, cell-based
[33] = Dose normalized AUC (infinity) in C57BL/6 mouse at 1 mg/kg, iv; type: ADME, organism-based; conditions: in vivo
[34] = Drug level in C57BL/6 mouse brain at 30 mg/kg, ip measured at 4 hrs; type: ADME, organism-based; conditions: read-out: Drug uptake
[35] = Intrinsic clearance in human liver microsomes; type: ADME, Microsome; conditions: read-out: CLH
[36] = Dose normalized AUC (infinity) in C57BL/6 mouse brain at 10 mg/kg, ip measured up to 4 hrs; type: ADME, organism-based; conditions: in vivo
[37] = Intrinsic clearance in dog liver microsomes; type: ADME, Canis lupus familiaris, Microsome; conditions: read-out: CLH
hERG (KCNH2) = hERG (KCNH2) (Homo sapiens, UniProt Q12809); assay: Displacement of [3H]dofetilide from human ERG expressed in HEK293 cells at 30 uM measured after 45 mins by topcount scintillation counting method relative to control; type: toxicity, cell-based; conditions: HEK293 cells that express hERG, probe [3H]dofetilide
Sequence of hERG (KCNH2) (Q12809 whole entry): as the sequence (Q12809 whole entry) above

[38] = AUC (0 to 8 hrs) in human plasma at 80 mg, po qd administered as water suspension by HPLC analysis relative to radioactivity of 14-C AUC; type: ADME, organism-based; conditions: in vivo
[39] = Drug uptake in male rat central nervous system at 30 mg/kg, po; type: ADME, organism-based; conditions: in vivo, BLD = below limit of detection
[40] = Drug uptake in female rat central nervous system at 30 mg/kg, po; type: ADME, organism-based; conditions: in vivo
[41] = AUC (0 to 8 hrs) in rat plasma at 30 mg/kg, po relative to radioactivity of 14-C AUC; type: ADME, organism-based; conditions: in vivo

## O=C1CCN(c2ncc(C(=O)Nc3ccc(OC(F)(F)Cl)cc3)cc2-c2ccn[nH]2)C1
[1]
  Drug uptake: 1.88%

## O=C(Nc1ccc(OC(F)(F)F)cc1)c1cncc(-c2cccnc2)c1
[2]
  Papp A→B: 271 nm/s
[3]
  Vd: 1.2 L/kg
[4]
  Ratio: 465
[5]
  Tmax: 1 h
[6]
  AC50: 2.8 µM
[7]
  AUC/dose: 5139 nM·h
BaF3
  GI50: 0.069 µM
  IC50: 0.075 µM
[8]
  Cmax/dose: 0.629 µM
MDR1
  efflux ratio: 1.03
[9]
  Papp: 245 nm/s
[10]
  IC50: 0.033 µM
[11]
  AUC/dose: 27926 nM·h
[12]
  half-life: 0.9 h
[13]
  Ratio: 3.29
[14]
  clearance: 1.02 L/h/kg
[15]
  CLint scaled: 1.86 L/h/kg
[16]; Homo sapiens, Fu97, 72 h
  IC50: > 30 µM
[16]; time 72 hrs
  %max: 55%
[17]
  Cmax/dose: 0.643 µM
[18]
  Papp B→A: 111 nm/s
[19]
  Ratio: 2.65
[20]
  Ratio: 2.32
[21]
  Tmax: 1.8 h
Mu-type opioid receptor [22]
  AC50: 9.78 µM
[23]
  CLint scaled: 3.36 L/h/kg
[24]
  solubility thermodynamic at 72 h: 3 µg/mL (≈ 8.35 µM)
[25]
  AUC/dose: 6672 nM·h
[26]
  solubility thermodynamic at 72 h: > 1500 µg/mL
[27]; Homo sapiens, SNU-213, 72 h
  IC50: 25 µM
[27]; time 72 hrs
  %max: 62%
[28]
  efflux ratio: 0.41
Mu-type opioid receptor [29]
  inhibition: > 50%
[30]; Homo sapiens, KBM-7, 72 h
  IC50: 0.197 µM
[30]; time 72 hrs
  %max: 98%
[31]
  Kp uu: 0.91
[32]; Homo sapiens, CMK-86, 72 h
  IC50: 1.6 µM
[32]; time 72 hrs
  %max: 62%
[33]
  AUC/dose: 2875 nM·h
[34]
  concentration at 4 h: 34.9 µM
[35]
  CLint scaled: 0.96 L/h/kg
[36]
  AUC/dose: 15720 nM·h
[37]
  CLint scaled: 1.8 L/h/kg
hERG (KCNH2)
  inhibition at 0.75 h, 30 µM: > 50%

## O=C(Nc1ccc(OC(F)(F)Cl)cc1)c1cnc(NCCC(O)CO)c(-c2ccn[nH]2)c1 (stereo not drawn)
[1]
  Drug uptake: 0.39%

## O=C(Nc1ccc(OC(F)(F)Cl)cc1)c1cnc(N2CC[C@@H](O)C2)c(-c2ccn[nH]2)c1 [ASCIMINIB]
[38]
  Drug uptake: 92.7%
[39]
  Drug uptake: Bld
[9]
  Papp: 211 nm/s
[40]
  Drug uptake: Active
[41]
  Drug uptake: 86%
[24]
  solubility thermodynamic at 72 h: 4 µg/mL (≈ 8.89 µM)
[26]
  solubility thermodynamic at 72 h: > 1500 µg/mL
